Laboratory results from article PMC4519959, “Baicalin Protects Mice from Aristolochic Acid I-Induced Kidney Injury by Induction of CYP1A through the Aromatic Hydrocarbon Receptor” (International Journal of Molecular Sciences, 2015).

Key:
AAI-induced renal damage = assay: AAI nephrotoxicity in mice (serum BUN, CRE, kidney H&E histopathology); type: in vivo, C57BL/6 mice
Excerpt: Mice were pretreated with baicalin for three days.
Figure 2 Effects of baicalin on aristolochic acid I (AAI) nephrotoxicity. Blood samples were collected to obtain serum for the measurement of blood urea nitrogen (BUN) (A) and creatinine (CRE) (B); (C) Kidneys were collected to perform hematoxylin and eosin (H&E) staining. Arrowheads, tubular dilation; stars, tubular necrosis and granular casts. Scale bar, 100 μm.
Male C57BL/6 mice (6–7 weeks old, 20–22 g) were obtained from Shanghai Laboratory Animal Center. All animal experiments were approved by the Shanghai Animal Care and Use Committee (Certificate No. SCXK [Shanghai] 2002-0010). […] Each group received different treatments as defined in Figure 7. Blood and liver tissues were collected and stored at −80 °C until use. Serum blood urea nitrogen (BUN) and creatinine (CRE) were measured by an automatic HITACHI Clinical Analyzer Model 7080 (Hitachi, Tokyo, Japan).
Kidneys were collected at the indicated time points and fixed in 10% formalin solution before being embedded in paraffin for sectioning into 5-μm-thick sections. Sections were stained with hematoxylin and eosin (H&E) using standard pathology procedures and evaluated by a pathologist as described previously.

[1] = Pharmacokinetics of AAI and AAIa in mouse plasma (HPLC); type: in vivo, C57BL/6 mice; conditions: for AUC / Cmax / Tmax / t1/2: AAI in mouse plasma
Excerpt: AAIa is the major metabolite of AAI oxidative metabolism by CYP1A. We studied the pharmacokinetics of AAI and its metabolites in vivo. […] Simultaneously, the level of AAIa, the major metabolite of AAI, was higher in the plasma of the baicalin-pretreated group than that in the AAI group (Figure 3B).
(§1) Figure 3 Levels of AAI and its major metabolite AAIa in the plasma, liver, and kidney. Blood samples were collected from mice at the indicated time points after AAI injection. Plasma levels of AAI (A) and AAIa (B) were measured by high-performance liquid chromatography (HPLC); Tissue samples from mice were collected at 30 min after AAI injection to determine the levels of AAI (C) and AAIa (D).
(§2) Blood samples (40 μL each) were collected in heparin-coated capillaries and mixed with 50 μL saline. The samples were spun at 3000× g for 10 min at 4 °C. Tissue samples were homogenized in saline and spun at 14,000× g for 10 min, and the supernatants were then mixed with 100 μg/mL (final concentration) indomethacin (internal standard, IS) and 2 volumes of methanol and spun again at 14,000× g for 5 min to remove precipitated proteins. Aliquots of the final supernatants were analyzed and quantified for the levels of AAI and its metabolite AAIa by high-performance liquid chromatography (HPLC), as described below.
The quantification of AAI and its metabolite AAIa was carried out with a Waters 9625 HPLC system (Sunnyvale, CA, USA). For AAI, the linear ranges of the calibration curves were 0–100 μg/mL in the plasma, liver, and kidney, the regression equations were y = 32.186x + 1.1609 (r^2 = 0.9992), y = 38.261x − 1.2753 (r^2 = 0.9688), and y = 80.334x + 1.7436 (r^2 = 0.9987), respectively, where y is the peak area and x is the concentration of the analyte. The identity of AAIa was confirmed with synthesized standards provided by Minghua Xu (Shanghai Institute of Materia Medica, Shanghai, China).

[2] = test system: X1 (+1 to −2867 of CYP1A1) segment of the CYP1A promoter; assay: Luciferase reporter assay pGL4.10-X1 in HepG2 cells; type: cell-based, human; conditions: baicalin 1, 10 or 50 μM, BNF 50 μM, normalized to renilla luciferase
Excerpt: (§3) Two pGL4.10 luciferase plasmids containing X1 (+1 to −2867 of CYP1A1) and X2 (−21,148 to −24,409 of CYP1A1; Figure 6A) segments were transfected into HepG2 cells to investigate the effects of baicalin.
(§4) Figure 6 Effects of baicalin on the AhR-mediated activation of different segments of the CYP1A promoter in HepG2 cells. (A) Location of two insert segments, X1 and X2; and (B) Effects of baicalin and BNF on the luciferase activity of pGL4.10-X1; (C) Effects of baicalin and BNF on the luciferase activity of pGL4.10-X2. Luciferase activity was determined by firefly luciferase assay with data normalized to renilla luciferase activity. The results are expressed as the activity in drug treatment groups relative to that of the vehicle control. Each value is expressed as the mean ± SD. * p < 0.05, ** p < 0.01, *** p < 0.001 versus the plasmid only group. […]
(§5) HepG2 cells were seeded at a density of 1.0 × 10^5 cells/mL in 6-well plates to achieve ~50% confluence the next day and were then transfected with pGL4.10-X1/2 plasmids using Lipofectamine 2000 (Invitrogen). […] Thereafter, cells were collected and further assayed for firefly luciferase activity, which was normalized to the activity of renilla luciferase, using the Dual-Luciferase Reporter Assay System (Promega, Madison, WI, USA) and a Biotek Synergy 4 Microplate reader (Biotek, Winooski, VT, USA). […]

[3] = test system: X2 (−21,148 to −24,409 of CYP1A1) segment of the CYP1A promoter; assay: Luciferase reporter assay pGL4.10-X2 in HepG2 cells; type: cell-based, human; conditions: baicalin 1, 10 or 50 μM, BNF 50 μM, normalized to renilla luciferase
Excerpt: as §3, §4, §5

CYP1A2 [4] = assay: Screening of herbal compounds for CYP1A2 induction in Fa2N-4 cells (mRNA, real-time PCR); type: cell-based, human; conditions: 10 μM, compared among seven herbal compounds
Protocol: To screen CYP1A2 inducers, Fa2N-4 cells, a non-tumorigenic immortalized human hepatic cell line, were treated with seven different herbal compounds.
Figure 1 Screening of herbal compounds for their activities in inducing CYP1A2 in Fa2N-4 cells. Cells were pre-treated with candidate compounds at 10 μM. CYP1A2 mRNA was quantified by real-time PCR. con: control (negative control); 1: omeprazole (positive control); 2: kaempferide; 3: catalpol; 4: isorhamnetin; 5: ferulic acid; 6: ligustrazine; 7: astragaloside; 8: baicalin. *** p < 0.001 versus the negative control.
(§6) The immortalized hepatocyte cell line Fa2N-4 (Xenotech, Kansas City, KS, USA) was maintained in BEGM Bullet kit medium with 10% heat inactivated fetal bovine serum (FBS) and 1% antibiotic-antimycotic solution (Invitrogen, Carlsbad, CA, USA) at 37 °C in a humidified atmosphere of 95% air and 5% CO2. Fa2N-4 cells were plated in 6-well plates to achieve ~80% confluence next day. Cells were collected at 24 h after treatment with vehicle or baicalin (0–100 μM) in the presence or absence of 3ʹ,4ʹ-DMF (2 μM).

[5] = Levels of AAI and AAIa in mouse liver and kidney (HPLC); type: in vivo, C57BL/6 mice; conditions: baicalin pretreatment; 30 min after AAI 10 mg/kg i.p.; versus AAI group
Protocol: as §1
To examine whether the change in pharmacokinetics of AAI upon baicalin pretreatment was due to changes in the tissue distribution of AAI, the levels of AAI and AAIa in the livers and kidneys were measured by HPLC.
as §2
The quantification of AAI and its metabolite AAIa was carried out with a Waters 9625 HPLC system (Sunnyvale, CA, USA). […]

CYP1A1 [6] = assay: CYP1A1 mRNA and protein expression in Fa2N-4 cells (real-time PCR, Western blot); type: cell-based, human; conditions: 24 h
Protocol: as §6

CYP1A1 [7] = assay: Hepatic CYP1A1 mRNA and protein expression in mice; type: in vivo, mouse; conditions: baicalin 80 mg/kg daily for 3 days
CYP1A2 [8] = conditions: mice
CYP1A2 [9] = type: cell-based, human; conditions: Fa2N-4 cells, DMF 2 μM with baicalin, 24 h
Protocol: as §6

[10] = AAI 10 mg/kg i.p. after baicalin 80 mg/kg daily for 3 days
[11] = AAI 10 mg/kg i.p. after baicalin 160 mg/kg daily for 3 days
[12] = baicalin 80 or 160 mg/kg daily for 3 days, then AAI 10 mg/kg i.p. on day 4, versus AAI only
[13] = baicalin pretreatment, then AAI 10 mg/kg i.p., versus AAI group

Compound: COc1cccc2c1cc([N+](=O)[O-])c1c(C(=O)O)cc3c(c12)OCO3 [AAI, aristolochic acid I]
- kidney lesions (H&E histopathology) (AAI-induced renal damage; AAI 10 mg/kg i.p., seven days after AAI administration): extensive tubular necrosis, and tubular dilation
- AUC [1, 10]: 759.39 ± 23.26 ** min·μg/mL
- Cmax [1, 10]: 4.43 ± 0.24 µg/mL
- Tmax [1, 10]: 10.00 ± 0 min
- t1/2 [1, 10]: 77.96 ± 6.84 min
- AUC [1, 11]: 710.07 ± 33.95 *** min·μg/mL
- Cmax [1, 11]: 3.89 ± 0.43 µg/mL
- Tmax [1, 11]: 9 ± 2.24 min
- t1/2 [1, 11]: 80.83 ± 3.02 min
- AUC ([1]; AAI 10 mg/kg i.p., no baicalin): 844.96 ± 40.12 µg·min/mL
- Cmax ([1]; AAI 10 mg/kg i.p., no baicalin): 4.99 ± 0.41 µg/mL
- Tmax ([1]; AAI 10 mg/kg i.p., no baicalin): 10.00 ± 0 min
- t1/2 ([1]; AAI 10 mg/kg i.p., no baicalin): 78.68 ± 12.88 min

Compound: O=c1cc(-c2ccccc2)oc2ccc3ccccc3c12 [BNF, β-Naphthoflavone, reference compound]
- luciferase activity of pGL4.10-X1 relative to vehicle control [2]: increased the luciferase activity
- luciferase activity of pGL4.10-X2 relative to vehicle control [3]: increased the luciferase activity

Compound: O=C(O)[C@H]1O[C@@H](Oc2cc3oc(-c4ccccc4)cc(=O)c3c(O)c2O)[C@H](O)[C@@H](O)[C@@H]1O [baicalin]
- CYP1A2 gene expression at the mRNA level (induction) (CYP1A2 [4]): most potent compound in inducing CYP1A2 gene expression
- blood urea nitrogen (BUN) induced by AAI (AAI-induced renal damage; [12]): significantly reduced
- creatinine (CRE) induced by AAI (AAI-induced renal damage; [12]): significantly reduced
- kidney lesions (H&E histopathology) (AAI-induced renal damage; baicalin pretreatment for 3 days, then AAI 10 mg/kg i.p., versus AAI group): fewer lesions
- effect of pretreatment on the level of AAI in mice (plasma, AUC) [1, 13]: markedly decreased
- effect of pretreatment on the level of AAIa in the plasma [1, 13]: higher
- effect of pretreatment on the level of AAI in livers and kidneys [5]: reduced levels
- effect of pretreatment on the level of AAIa in livers and kidneys [5]: reduced levels
- CYP1A1 expression at mRNA and protein level (CYP1A1 [6]; 100 μM): increased
- CYP1A1 expression (CYP1A1 [6]; 10 or 50 μM): relatively mild effect
- CYP1A1 expression in the liver at mRNA and protein level (CYP1A1 [7]): pronouncedly increased
- luciferase activity of pGL4.10-X1 relative to vehicle control [2]: increased the luciferase activity
- luciferase activity of pGL4.10-X2 relative to vehicle control [3]: increased the luciferase activity
- CYP1A2 expression in the liver at mRNA and protein level (CYP1A2 [8]; baicalin 80 mg/kg daily for 3 days): pronouncedly increased

Compound: COc1ccc(-c2cc(=O)c3ccccc3o2)cc1OC [DMF, 3ʹ,4ʹ-dimethoxyflavone, reference compound]
- effect on baicalin-induced CYP1A2 expression (CYP1A2 [9]): abolished
- effect on baicalin-induced CYP1A1 expression (CYP1A1 [6]; DMF 2 μM with baicalin): abolished

Compound: Oc1ccc(/C=C/c2cc(O)cc(O)c2)cc1 [RES, resveratrol, reference compound]
- effect on induction of hepatic CYP1A2 by baicalin (CYP1A2 [8]; RES 50 mg/kg with baicalin 80 mg/kg daily for 3 days): pronouncedly attenuated
